The text below walks through data of patent publication US20090118135A1, “METHODS AND COMPOUNDS FOR REGULATING APOPTOSIS” (The Burnham Institute, priority 2007, published 2009).

This assay has as its target T1, GST-Bfl-1 (Homo sapiens, UniProt Q16548).
T1 construct: lacking their C-terminal transmembrane domains (about the last 20 amino acids) (“ΔTM”); made in house; host or cells: XL-1 Blue E. coli, pGEX 4T-1
T1 sequence (Q16548 1-155 limits assumed): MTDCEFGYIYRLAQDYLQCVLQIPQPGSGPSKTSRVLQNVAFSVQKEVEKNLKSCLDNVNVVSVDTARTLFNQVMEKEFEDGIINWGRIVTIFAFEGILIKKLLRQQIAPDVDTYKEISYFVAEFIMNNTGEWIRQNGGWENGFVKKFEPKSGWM
The experiment in a line: Bfl-1/FITC-Bid BH3 competitive fluorescence polarization assay. Format: binding. Particulars: primary HTS hits, MLSCN library (PubChem SIDs), Table 5B.

With `CCS(=O)(=O)NCc1ccc2c(c1)cc(C)n2C` [Compound 14733498], the “% Activity” value is on record as 51.8% and the FRatio came to 1.

Take `COc1ccc(NC(=O)c2noc3c2CCC3)cc1` [Compound 14733727]: the “% Activity” value worked out at 102.1% and the FRatio stood at 0.93.

Turning to `CCc1ccccc1NC(=O)c1cc2ncc(Br)cn2n1` [Compound 14733824], the “% Activity” value came to 74.2% and the FRatio stood at 0.79.

For the molecule `CCOc1cc(/C=C2\C(=O)N(c3nc(-c4ccc(Br)cc4)cs3)N=C2c2ccccc2)ccc1O` [Compound 14733887], the “% Activity” value is 68.2% and the FRatio amounted to 0.76.

In the case of `CC1CC(C)CN(C(=O)c2ccc3c(c2NCCO)C(=O)c2ccccc2C3=O)C1` (stereo not drawn) [Compound 14734023], the “% Activity” value is given as 83.7% and the FRatio stood at 0.97.

In the case of `Cc1ccc(NC(=O)Nc2cccs2)c(Cl)c1` [Compound 14734202], the “% Activity” value is 66.3% and the FRatio came to 1.39.

Consider `Cc1cc(OCC(=O)Nc2ccc(N3CCCC3)cc2)cc(C)c1Cl` [Compound 14734365], for which the “% Activity” value is on record as 59.3% and the FRatio worked out at 0.71.

For the molecule `CCC1=[N+](C)CCn2c(C)ccc21` [Compound 14734567], the “% Activity” value was found to be 57.1% and the FRatio was 1.

As to `CN(C)S(=O)(=O)N(CC(=O)N(Cc1ccccc1)Cc1ccccc1)c1ccccc1` [Compound 14736293], the “% Activity” value is recorded as 90.4% and the FRatio turned out to be 0.73.

With `CCOC(=O)c1ccc(NC2=CC(=O)C(=O)c3ccccc32)cc1` [Compound 14737410], the “% Activity” value was 89.5% and the FRatio worked out at 1.15.

Regarding `Cc1ccc(S(=O)(=O)Cc2ccc(C(=O)O)o2)cc1` [Compound 14737647], the “% Activity” value was found to be 66.5% and the FRatio turned out to be 0.86.

With `CN(C)c1ccc(NC(=O)CN2C(=O)CN=C(c3ccccc3)c3cc(Cl)ccc32)cc1` [Compound 14738707], the “% Activity” value turned out to be 66.4% and the FRatio worked out at 0.84.

Consider `COc1ccc(C(=O)Nc2ccc(N3CCCC3)cc2)cc1` [Compound 14739290], for which the “% Activity” value is reported as 78.8% and the FRatio is listed as 0.85.

On to `O=C(Cc1ccccc1)Nc1ccc(N2CCCC2)cc1` [Compound 14739360], for which the “% Activity” value came out at 59.1% and the FRatio is recorded as 0.93.

As for `CC(=O)c1ccc(NC(=O)c2ccc3nc(-c4ccco4)c(-c4ccco4)nc3c2)cc1` [Compound 14740115], the “% Activity” value is 59.5% and the FRatio stood at 0.97.

Regarding `CCC1=NNc2cccc3c(OC)ccc1c23` [Compound 14740154], the “% Activity” value is on record as 83.6% and the FRatio was found to be 1.

As to `CC(=O)Nc1ccc(S(=O)(=O)/N=C2/C(=O)c3ccccc3C(O)=C2N2CCN(Cc3ccccc3)CC2)cc1` [Compound 14742166], the “% Activity” value came out at 50.6% and the FRatio stood at 0.73.

Consider `Cc1ccc2c(c1)c(=O)c1c3n2CCN(C(=O)CCl)C3CC1` (stereo not drawn) [Compound 14742276], for which the “% Activity” value is on record as 72.4% and the FRatio worked out at 0.88.

Regarding `Cc1ccccc1NC(=O)CSc1nnc(-c2ccco2)c(-c2ccco2)n1` [Compound 14742395], the “% Activity” value is 56.3% and the FRatio came to 1.09.

Take `Cc1c(CN(C)C)c2c(n1Cc1ccccc1)C(=O)c1ccc(Br)cc1-2` [Compound 14742663]: the “% Activity” value is recorded as 78.5% and the FRatio is listed as 0.61.

Turning to `CSc1nc2n(n1)C(c1ccccn1)C1=C(O)CC(C)(C)CC1=N2` (stereo not drawn) [Compound 14742716], the “% Activity” value came out at 61.8% and the FRatio is recorded as 0.84.

Turning to `O=C(Nc1cccnc1)c1ccc(S(=O)(=O)N2CCCCCC2)cc1` [Compound 14744015], the “% Activity” value is recorded as 88.4% and the FRatio is recorded as 0.84.

`O=C(COC(=O)Cc1ccccc1)Nc1ncc(Cl)cc1Cl` [Compound 14744122]: the “% Activity” value is recorded as 58.8% and the FRatio is recorded as 1.03.

As to `O=C(COC(=O)CC12CC3CC(CC(C3)C1)C2)Nc1ncc(Cl)cc1Cl` [Compound 14744137], the “% Activity” value worked out at 52% and the FRatio worked out at 1.16.

`O=C(COC(=O)C1CCN(S(=O)(=O)c2cc([N+](=O)[O-])ccc2Cl)CC1)Nc1ncc(Cl)cc1Cl` [Compound 14744641]: the “% Activity” value was 75.9% and the FRatio turned out to be 0.93.

For `O=C(Nc1ccccc1N1CCOCC1)c1cc(-c2ccco2)nc2ccccc12` [Compound 14744733], the “% Activity” value worked out at 61.4% and the FRatio came to 0.83.

For the molecule `Cc1cnnn1-c1ccc(C(=O)CCl)cc1` [Compound 14744853], the “% Activity” value worked out at 52.9% and the FRatio turned out to be 0.82.

On to `Cc1cc(N)ccc1N1CCCC1` [Compound 14744983], for which the “% Activity” value is given as 86.5% and the FRatio worked out at 0.71.

Consider `O=C(c1cc2c(s1)CCC2)N1CCN(c2ccccc2)CC1` [Compound 14745443], for which the “% Activity” value came to 71.6% and the FRatio was 0.73.

In the case of `O=C(OCC(=O)N1CCN(C(=O)c2ccco2)CC1)c1cc(-c2ccco2)nc2ccccc12` [Compound 14745657], the “% Activity” value stood at 73.4% and the FRatio worked out at 0.97.

For `Cc1ccc(-[n+]2c(-c3ccc(Br)cc3)cn3c2CCc2ccc4cccnc4c2-3)cc1` [Compound 14745910], the “% Activity” value is given as 56.2% and the FRatio was 0.81.

For the molecule `COc1cccc(N2CCN(Cc3ccsc3)CC2)c1` [Compound 14746122], the “% Activity” value turned out to be 56.1% and the FRatio was 0.85.

For the molecule `Oc1ccc(-c2cn3c(n2)SCC3)cc1O` [Compound 14746201], the “% Activity” value was 77.7% and the FRatio was 0.91.

For `Cc1csc(N/N=C/c2ccc(O)c([N+](=O)[O-])c2)n1` [Compound 14746238], the “% Activity” value was 57.1% and the FRatio was determined as 0.84.

As to `O=C(C[n+]1ccc(C(=O)N/N=C/c2ccc(O)cc2)cc1)c1ccccc1` [Compound 14746260], the “% Activity” value is reported as 57.9% and the FRatio amounted to 0.72.

On to `CC(=O)c1c(CC(=O)O)nn(-c2nc3ccccc3s2)c1O` [Compound 14746319], for which the “% Activity” value was determined as 69% and the FRatio came out at 0.7.

Consider `Cc1cc(C)c(NC(=O)CN(c2ccccc2)S(=O)(=O)N(C)C)c(C)c1` [Compound 14746364], for which the “% Activity” value is 90.5% and the FRatio came out at 0.65.

As to `O=[N+]([O-])c1cc(/C=N/Nc2nccs2)ccc1O` [Compound 14746394], the “% Activity” value is 107% and the FRatio came out at 0.75.

Regarding `CCC(=O)Nc1cccc(NC(C)=O)c1` [Compound 14746435], the “% Activity” value turned out to be 92.4% and the FRatio is 0.85.

`COc1cc2c(C#N)c(N3CCN(C)CC3)nc(N)c2c(N)n1` [Compound 14746488]: the “% Activity” value amounted to 51.4% and the FRatio was 0.92.

For `Cc1cc(-c2csc(N)n2)c(C)n1C` [Compound 14746541], the “% Activity” value was determined as 69.5% and the FRatio was found to be 0.94.

For `COc1ccccc1N1CCN(C(=O)c2cc3c(s2)CCC3)CC1` [Compound 14746697], the “% Activity” value amounted to 74.1% and the FRatio turned out to be 0.9.

Consider `Cc1ccc2c(Cl)cc(Cl)c(OCC(=O)NCc3ccco3)c2n1` [Compound 14747102], for which the “% Activity” value was determined as 56.5% and the FRatio amounted to 0.8.

On to `Cc1cc[n+]2c3c(cccc13)CCC2` [Compound 14748512], for which the “% Activity” value is 76.6% and the FRatio was 0.76.

Regarding `CCCCNC(=O)COC(=O)c1ccc(Cl)c(S(=O)(=O)N2CCCC2)c1` [Compound 16952426], the “% Activity” value is recorded as 54.8% and the FRatio stood at 0.92.

Turning to `C[C@@H](C(=O)Nc1nc(-c2ccccn2)cs1)N1C(=O)C2CCCCC2C1=O` (stereo partly drawn) [Compound 16952892], the “% Activity” value was found to be 51.1% and the FRatio is 1.04.

Regarding `Cc1ccc(/N=N/c2ccc(O)c(/C=N/NC(=O)c3ccc(N)cc3)c2)cc1C` [Compound 16952937], the “% Activity” value was found to be 91.7% and the FRatio was determined as 0.71.

Take `Cc1cc(C)c(I)c(S(=O)(=O)N2CCC(C(=O)OCC(=O)N3c4ccccc4NC(=O)C3(C)C)CC2)c1C` [Compound 16952989]: the “% Activity” value is recorded as 72.9% and the FRatio turned out to be 0.93.

Take `COc1ccc(S(=O)(=O)N2Cc3ccccc3CC2C(=O)O)cc1` (stereo not drawn) [Compound 16953199]: the “% Activity” value came to 53% and the FRatio is on record as 0.85.

Take `O=C(COC(=O)c1ccc(S(=O)(=O)NCc2ccco2)cc1)NCC1CCCCC1` [Compound 16953469]: the “% Activity” value is given as 60.3% and the FRatio was found to be 1.01.

Take `O=C(N/N=C1\C(=O)c2cccc3cccc1c23)c1ccc(Cl)cc1` [Compound 16953557]: the “% Activity” value came to 68.6% and the FRatio was found to be 0.84.

On to `CC(=N)/C(C#N)=C(\O)CSc1nc2ccccc2[nH]1` [Compound 17385704], for which the “% Activity” value stood at 105.8% and the FRatio came out at 0.67.

Consider `COc1cc(-c2nnc(SCc3cc(=O)oc4cc(O)c(O)cc34)o2)cc(OC)c1OC` [Compound 17385711], for which the “% Activity” value is reported as 68.3% and the FRatio came out at 0.7.

Regarding `COc1ccccc1CNC(=O)COC(=O)c1cc(-c2ccco2)nc2ccccc12` [Compound 17385737], the “% Activity” value came to 70.8% and the FRatio is recorded as 0.81.
